The values below come from patent publication US10513523B2, “Imidazopyrazines and pyrazolopyrimidines and their use as AMPA receptor modulators” (Janssen Pharmaceutica NV, priority 2015, dated 2019).

Sequence of GluA1o-γ8 (GRIA1o-CACNG8 fusion construct; TARP γ8 dependent AMPA receptor) (P42261 other isoform, or with tags, fused parts or gaps): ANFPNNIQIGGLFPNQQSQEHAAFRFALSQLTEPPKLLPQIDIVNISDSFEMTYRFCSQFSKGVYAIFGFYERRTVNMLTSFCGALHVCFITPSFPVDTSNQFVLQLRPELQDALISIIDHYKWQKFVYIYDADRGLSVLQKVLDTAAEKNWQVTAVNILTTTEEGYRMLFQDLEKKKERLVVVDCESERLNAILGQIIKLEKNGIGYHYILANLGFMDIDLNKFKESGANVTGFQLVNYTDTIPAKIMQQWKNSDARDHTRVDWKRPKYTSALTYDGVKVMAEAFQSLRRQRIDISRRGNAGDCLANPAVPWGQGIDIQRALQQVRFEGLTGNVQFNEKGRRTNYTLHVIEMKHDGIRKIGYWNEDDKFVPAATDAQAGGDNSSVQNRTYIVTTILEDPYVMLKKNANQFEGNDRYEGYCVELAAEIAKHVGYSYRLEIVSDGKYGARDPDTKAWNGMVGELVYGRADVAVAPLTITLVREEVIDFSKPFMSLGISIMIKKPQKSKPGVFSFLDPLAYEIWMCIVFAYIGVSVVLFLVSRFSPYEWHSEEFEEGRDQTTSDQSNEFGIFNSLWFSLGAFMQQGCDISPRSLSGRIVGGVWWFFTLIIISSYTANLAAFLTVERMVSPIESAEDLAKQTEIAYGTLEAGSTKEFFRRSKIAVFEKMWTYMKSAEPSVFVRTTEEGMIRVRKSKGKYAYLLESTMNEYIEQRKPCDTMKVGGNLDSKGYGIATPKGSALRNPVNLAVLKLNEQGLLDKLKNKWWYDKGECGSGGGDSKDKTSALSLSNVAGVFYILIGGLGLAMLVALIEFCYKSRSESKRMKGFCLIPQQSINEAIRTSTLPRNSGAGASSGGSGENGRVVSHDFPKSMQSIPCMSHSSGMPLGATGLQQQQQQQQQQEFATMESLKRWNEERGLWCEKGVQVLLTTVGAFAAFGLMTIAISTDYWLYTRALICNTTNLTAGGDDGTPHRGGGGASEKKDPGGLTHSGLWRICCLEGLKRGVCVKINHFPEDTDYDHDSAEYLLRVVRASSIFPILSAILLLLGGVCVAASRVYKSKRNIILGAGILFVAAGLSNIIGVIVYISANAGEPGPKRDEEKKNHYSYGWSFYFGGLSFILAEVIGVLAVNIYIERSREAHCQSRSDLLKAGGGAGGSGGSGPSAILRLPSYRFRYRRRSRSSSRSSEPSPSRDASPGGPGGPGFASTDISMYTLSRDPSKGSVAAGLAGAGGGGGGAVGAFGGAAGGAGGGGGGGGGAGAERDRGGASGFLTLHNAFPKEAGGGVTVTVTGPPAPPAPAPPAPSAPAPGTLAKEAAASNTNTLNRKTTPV

The test has as its target GluA1o-γ8 (GRIA1o-CACNG8 fusion construct; TARP γ8 dependent AMPA receptor) (Homo sapiens (Human), UniProt P42261+Q8WXS5). Kind of test: Calcium flux assay (FLIPR), inhibition of glutamate response of GluA1o-γ8 channel. Type of test: cell-based. As to conditions: HEK293 cells stably expressing GRIA1o-CACNG8 fusion; 15 μM glutamate; pIC50 = negative log of IC50 in molar; read-out: GluR1-γ8 (pIC50) (converted). The gist of the method: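 Potency is the midpoint of a four-parameter logistic fit to control-normalized FLIPR calcium responses elicited by 15 μM glutamate. Stable HEK293 cells carried a fused GluA1o-γ8 construct and were preincubated with compound and calcium dye in pH 7.4 HEPES buffer.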
As for `CC(=O)NC1CCN(c2nccn3c(-c4ccc(O)cc4)c(-c4ccc(Cl)cc4)nc23)CC1` [Example 93, N-[1-[2-(4-Chlorophenyl)-3-(4-hydroxyphenyl)imidazo[1,2-a]pyrazin-8-yl]-4-piperidyl]acetamide], the IC50 was 31.6 nM. In the case of `CC(=O)N1CCN(c2nccn3c(-c4ccc(O)cc4)c(-c4ccc(Cl)cc4)nc23)CC1` [Example 94, 1-[4-[2-(4-Chlorophenyl)-3-(4-hydroxyphenyl)imidazo[1,2-a]pyrazin-8-yl]piperazin-1-yl]ethanone], the IC50 is 3.16 nM. To `N#Cc1ccc(-c2nc3c(N4CCOCC4)nccn3c2-c2ccc(O)cc2)cc1` [Example 95, 4-[3-(4-Hydroxyphenyl)-8-morpholino-imidazo[1,2-a]pyrazin-2-yl]benzonitrile] belongs 31.6 nM. Take `Oc1ccc(-c2c(Cc3cccc(F)c3)nc3c(N4CCOCC4)nccn23)cc1` [Example 96, 4-[2-[(3-Fluorophenyl)methyl]-8-morpholino-imidazo[1,2-a]pyrazin-3-yl]phenol]: the IC50 is 20 nM. To `N#Cc1ccc(-c2nc3c(N4CCOCC4)nccn3c2-c2ccc3[nH]ncc3c2)cc1` [Example 97, 4-[3-(1H-Indazol-5-yl)-8-morpholino-imidazo[1,2-a]pyrazin-2-yl]benzonitrile] belongs 3.98 nM; to `CC(=O)N[C@H]1CCN(c2nccn3c(-c4ccc5[nH]c(=O)[nH]c5c4)c(-c4ccc(F)cc4)nc23)C1` [Example 98, N-[(3S)-1-[2-(4-Fluorophenyl)-3-(2-oxo-1,3-dihydrobenzimidazol-5-yl)imidazo[1,2-a]pyrazin-8-yl]pyrrolidin-3-yl]acetamide], 2.51 nM; to `COc1nccn2c(-c3ccc4[nH]c(=O)[nH]c4c3)c(-c3ccc(F)cc3)nc12` [Example 99, 5-[2-(4-Fluorophenyl)-8-methoxy-imidazo[1,2-a]pyrazin-3-yl]-1,3-dihydrobenzimidazol-2-one], 25.1 nM.

As for `CC(=O)N[C@@H]1CCN(c2nccn3c(-c4ccc5[nH]c(=O)[nH]c5c4)c(-c4ccc(F)cc4)nc23)C1` [Example 100, N-[(3R)-1-[2-(4-Fluorophenyl)-3-(2-oxo-1,3-dihydrobenzimidazol-5-yl)imidazo[1,2-a]pyrazin-8-yl]pyrrolidin-3-yl]acetamide], the IC50 is 12.6 nM. Regarding `CN(C)c1nccn2c(-c3ccc4[nH]c(=O)[nH]c4c3)c(-c3ccc(F)cc3)nc12` [Example 101, 5-[8-(Dimethylamino)-2-(4-fluorophenyl)imidazo[1,2-a]pyrazin-3-yl]-1,3-dihydrobenzimidazol-2-one], the IC50 is 0.501 nM. The same measure for `N#Cc1ccc(-c2nc3c(N4CCOCC4)nccn3c2-c2ccc3c(c2)CC(=O)N3)cc1` [Example 102, 4-[8-Morpholino-3-(2-oxoindolin-5-yl)imidazo[1,2-a]pyrazin-2-yl]benzonitrile]: 2 nM; for `CC(=O)N1CCN(c2nccn3c(-c4ccc5[nH]ncc5c4)c(-c4ccc(C#N)cc4)nc23)CC1` [Example 103, 4-[8-(4-Acetylpiperazin-1-yl)-3-(1H-indazol-5-yl)imidazo[1,2-a]pyrazin-2-yl]benzonitrile]: 0.794 nM.

Regarding `CNc1nccn2c(-c3ccc4[nH]c(=O)[nH]c4c3)c(-c3ccc(F)cc3)nc12` [Example 104, 5-[2-(4-Fluorophenyl)-8-(methylamino)imidazo[1,2-a]pyrazin-3-yl]-1,3-dihydrobenzimidazol-2-one], the IC50 was 6.31 nM. On to `N#Cc1ccc(-c2nc3c(N4CCOCC4)nccn3c2-c2ccc3[nH]c(=O)[nH]c3c2)cc1` [Example 105, 4-[8-Morpholino-3-(2-oxo-1,3-dihydrobenzimidazol-5-yl)imidazo[1,2-a]pyrazin-2-yl]benzonitrile], for which the IC50 was 1.26 nM. `CC(=O)N1CCN(c2nccn3c(-c4ccc5[nH]c(=O)[nH]c5c4)c(-c4ccc(C#N)cc4)nc23)CC1` [Example 106, 4-[8-(4-Acetylpiperazin-1-yl)-3-(2-oxo-1,3-dihydrobenzimidazol-5-yl)imidazo[1,2-a]pyrazin-2-yl]benzonitrile]: the IC50 is 5.01 nM.
